Test results reported in patent publication US10779532B2, “Methods and compositions for killing of insect pest eggs” (North Carolina State University, priority 2016, dated 2020).

Legend:
lice = test: Killing of lice stages; assay type: in vivo; conditions: all stages of the lice
[1] = Evaporation of 2-undecanone after application; assay type: physicochemical; conditions: typically
cotton bollworm eggs = test: Killing insect eggs, cotton bollworm model system (3 second dip, egg hatch over 4 days); assay type: in vivo; conditions: 2-undecanone from 1 to 8% in absolute ethanol, hatch assessed 4 days, highest level of the dose response
From the text: Due to their obligate parasitic lifestyle, lice, head lice, in particular, are very difficult to obtain. Thus, bollworm eggs were used in place of lice eggs for the experiments showing efficacy of the treatments described herein. […] Therefore, it is understood that if the treatment works on bollworm eggs, it will also work on the eggs of head lice. Further, the experiments using body lice, a recognized proxy for head lice, confirmed the effectiveness of the treatment with the formulations of this invention.
All treatments were conducted by dipping the bollworm eggs in the different treatments for 3 seconds, allowing the eggs to dry at room temperature, and then assessing egg hatch for the following 4 days. The eggs typically hatch under these conditions in 2.5 days. The solvent used in these experiments was absolute ethanol.

insect pest eggs = test: Exposure of insect pest eggs to formulations, percent killed; assay type: in vivo
From the text: As well understood, the percentage of eggs killed may depend on the concentration of the ovicide and the exposure time to the ovicide (e.g., the time for applying). Thus, applying or contacting of the compositions and formulations of the invention generally results in the killing of about 45% to about 100% (e.g., about 45, 50, 55, 60, 65, 70, 75, 80, 85, 90, 95, 100%) of the insect pest eggs for any given time period. However, the compositions and formulations are shown to work very quickly and efficiently, resulting in a killing of 100% of the insect pest eggs following a very short contact or application time. Thus, in some embodiments, a one to five second exposure results in a 100% kill of the insect pest eggs. In some embodiments, exposure of insect pest eggs to a formulation of 1% 2-undecanone and 1% DE for 3 seconds kills about 100% of the insect pest eggs. In some embodiments, exposure of insect pest eggs to a formulation of 8% 2-undecanone and 1% DE for 1 second kills about 100% of the insect pest eggs. In some embodiments, exposure of insect pest eggs to a formulation of 5% 2-undecanone for 1 second kills about 70% of the insect pest eggs. In some embodiments, exposure of insect pest eggs to a formulation of 15% 2-undecanone for about one to about five second kills about 100% of the insect pest eggs. […]

eggs = test: Residual activity against eggs; assay type: in vivo; conditions: after application

Compound: CCCCCCCCCC(C)=O [2-undecanone]
- killing of lice stages (lice): kill all stages of the lice
- time to evaporate [1]: ≤ 30 min
- egg mortality (cotton bollworm eggs): about 90%
- insect pest eggs killed (insect pest eggs; 5% 2-undecanone, exposure 1 second): about 70%
- insect pest eggs killed (insect pest eggs; 15% 2-undecanone, exposure about one to about five second): about 100%
- residual activity against eggs (eggs): minimal residual activity
